Results as given in US10364226B2, “Pyridazinone compounds and uses thereof” (priority 2013, dated 2019).

Assays:
[1] = system: Influenza strain A549 A/WSN/33 (H1N1); test: Influenza Antiviral Assay; type: cell-based, Influenza A virus; conditions: Influenza A virus, A549, 20 h, neuraminidase fluorescence readout, read-out: % Inhibition
EN PA = EN PA (Influenza A virus, UniProt P15659); test: EN PA FRET Inhibition Assay; type: biochemical; conditions: read-out: Potency

Compound	EC50 [1]	IC50 (EN PA)
Cc1ccc(CNC(=O)c2nn(CC3(c4cccc(C(F)(F)F)c4)CCCC3)cc(O)c2=O)cc1 [Compound 524]	< 20000 nM	100 to 1000 nM
COc1ccc(CNC(=O)c2nn(CC3(c4cccc(C(F)(F)F)c4)CCCC3)cc(O)c2=O)cc1 [Compound 525]	< 20000 nM	100 to 1000 nM
NC(=O)c1nn(CC2(c3cccc(C(F)(F)F)c3)CCCC2)cc(O)c1=O [Compound 602]	< 20000 nM	100 to 1000 nM
CNC(=O)c1nn(-c2ccccc2S(=O)(=O)c2ccccc2)cc(O)c1=O [Compound 603]	> 100000 nM	≥ 1000 nM
CNC(=O)c1nn(CCc2ccccc2OC)cc(O)c1=O [Compound 604]	> 100000 nM	≥ 1000 nM
O=C(NCc1ccccc1)c1nn(-c2ccccc2S(=O)(=O)c2ccccc2)cc(O)c1=O [Compound 605]	20000 to 100000 nM	100 to 1000 nM
CNC(=O)c1nn(CCC2CCCCC2)cc(O)c1=O [Compound 606]	20000 to 100000 nM	≥ 1000 nM
CNC(=O)c1nn(CC(C)(C)c2ccc(C)cc2)cc(O)c1=O [Compound 607]	< 20000 nM	100 to 1000 nM
CNC(=O)c1nn(CC2(n3ccc4cccnc43)CCCC2)cc(O)c1=O [Compound 609]	< 20000 nM	< 100 nM
CNC(=O)c1nn(-c2ccccc2-c2ccccc2OC2CCCC2)cc(O)c1=O [Compound 610]	20000 to 100000 nM	100 to 1000 nM
CNC(=O)c1nn(-c2ccccc2-c2cccc(OC)c2)cc(O)c1=O [Compound 611]	> 100000 nM	≥ 1000 nM
CNC(=O)c1nn(-c2ccccc2-c2cc(OC)ccc2Cl)cc(O)c1=O [Compound 612]	20000 to 100000 nM	≥ 1000 nM
CNC(=O)c1nn(-c2ccccc2-c2ccc3[nH]ccc3c2)cc(O)c1=O [Compound 613]	> 100000 nM	≥ 1000 nM
CNC(=O)c1nn(CCc2cccc3ccccc23)cc(O)c1=O [Compound 614]	20000 to 100000 nM	100 to 1000 nM
CNC(=O)c1nn(CC2(c3cccc(C(F)(F)F)c3)CC2)cc(O)c1=O [Compound 621]	< 20000 nM	100 to 1000 nM
CNC(=O)c1nn(CC2(n3cc(C)c4cccnc43)CCCC2)cc(O)c1=O [Compound 622]	< 20000 nM	100 to 1000 nM
COc1cccc(CNC(=O)c2nn(CC3(c4cccc(C(F)(F)F)c4)CCCC3)cc(O)c2=O)c1 [Compound 624]	< 20000 nM	100 to 1000 nM
O=C(NCc1ccc2c(c1)OCO2)c1nn(CC2(c3cccc(C(F)(F)F)c3)CCCC2)cc(O)c1=O [Compound 625]	< 20000 nM	100 to 1000 nM
NC(=O)c1nn(CC2(c3cccc(C(F)(F)F)c3)CC2)cc(O)c1=O [Compound 626]	20000 to 100000 nM	100 to 1000 nM
O=C(Nc1ccccc1)c1nn(CC2(c3ccccc3)CCCC2)cc(O)c1=O [Compound 639]	20000 to 100000 nM	100 to 1000 nM
CNC(=O)c1nn(-c2ccccc2S(=O)(=O)c2cccc(Cl)c2)cc(O)c1=O [Compound 644]	> 100000 nM	100 to 1000 nM
CNC(=O)c1nn(CC(C)(C)c2cccc(C(F)(F)F)c2)cc(O)c1=O [Compound 645]	< 20000 nM	< 100 nM
Cn1cc(CNC(=O)c2nn(CC3(c4cccc(C(F)(F)F)c4)CCCC3)cc(O)c2=O)cn1 [Compound 646]	< 20000 nM	< 100 nM

Compound	EC50 [1]	IC50 (EN PA)
Cc1cc(CNC(=O)c2nn(CC3(c4cccc(C(F)(F)F)c4)CCCC3)cc(O)c2=O)[nH]n1 [Compound 648]	< 20000 nM	< 100 nM
O=C(NCc1cnn(-c2ccc(F)cc2)c1)c1nn(CC2(c3cccc(C(F)(F)F)c3)CCCC2)cc(O)c1=O [Compound 649]	< 20000 nM	< 100 nM
CCn1cc(CNC(=O)c2nn(CC3(c4cccc(C(F)(F)F)c4)CCCC3)cc(O)c2=O)cn1 [Compound 650]	< 20000 nM	< 100 nM
CNC(=O)c1nn(Cc2ccccc2-c2ccccc2)cc(O)c1=O [Compound 654]	> 100000 nM	100 to 1000 nM
Cc1ccc(C2(Cn3cc(O)c(=O)c(C(=O)O)n3)CC2)cc1 [Compound 655]	> 100000 nM	< 100 nM
CNC(=O)c1nn(CC2(c3ccc(C)cc3)CC2)cc(O)c1=O [Compound 656]	> 100000 nM	100 to 1000 nM
CNC(=O)c1nn(CC(c2ccccc2)C2CCCC2)cc(O)c1=O (stereo not shown) [Compound 658]	> 100000 nM	100 to 1000 nM
CNC(=O)c1nn(CC(c2ccccc2)C2CCCCC2)cc(O)c1=O (stereo not shown) [Compound 659]	> 100000 nM	100 to 1000 nM
CNC(=O)c1nn(CC(c2ccccc2)c2ccccc2)cc(O)c1=O [Compound 660]	> 100000 nM	100 to 1000 nM
Cc1cn(C2(Cn3cc(O)c(=O)c(C(=O)NC4CC4)n3)CCCC2)c2ncccc12 [Compound 661]	< 20000 nM	< 100 nM
CNC(=O)c1nn(CC2(n3cc(C)c4cccnc43)CCCC2)cc(OC(C)=O)c1=O [Compound 662]	< 20000 nM	< 100 nM
Cc1csc(CNC(=O)c2nn(CC3(c4cccc(C(F)(F)F)c4)CCCC3)cc(O)c2=O)c1 [Compound 663]	> 100000 nM	100 to 1000 nM
O=C(NCc1cccnc1)c1nn(CC2(c3ccccc3)CCCC2)cc(O)c1=O [Compound 664]	> 100000 nM	100 to 1000 nM
CNC(=O)c1nn(CC2(c3cccc(C(C)C)c3)CCCC2)cc(O)c1=O [Compound 665]	< 20000 nM	< 100 nM
CNC(=O)c1nn(CC2(c3cccc(Br)c3)CCCC2)cc(O)c1=O [Compound 666]	< 20000 nM	< 100 nM
O=C(NCc1ccc2[nH]ncc2c1)c1nn(CC2(c3cccc(C(F)(F)F)c3)CCCC2)cc(O)c1=O [Compound 669]	> 100000 nM	< 100 nM
CNC(=O)c1nn(CC2c3ccccc3CCc3ccccc32)cc(O)c1=O [Compound 670]	> 100000 nM	100 to 1000 nM
CNC(=O)c1nn(CC2(n3cc(-c4ccccc4)c4cccnc43)CCCC2)cc(O)c1=O [Compound 671]	< 20000 nM	100 to 1000 nM
CNC(=O)c1nn(CC2(c3cccc(-c4ccccc4)c3)CCCC2)cc(O)c1=O [Compound 674]	< 20000 nM	< 100 nM
O=C(NC1CC1)c1nn(CC2(c3ccccc3)CCCC2)cc(O)c1=O [Compound 676]	< 20000 nM	< 100 nM
O=C(NCC1CC1)c1nn(CC2(c3ccccc3)CCCC2)cc(O)c1=O [Compound 677]	< 20000 nM	< 100 nM
CNC(=O)c1nn(CC2(n3cc(C)c4cccnc43)CCCC2)cc(OC(=O)C(C)C)c1=O [Compound 678]	< 20000 nM	< 100 nM
CNC(=O)c1nn(CC2(n3cc(C)c4cccnc43)CCCC2)cc(OC(=O)C(C)(C)C)c1=O [Compound 679]	< 20000 nM	< 100 nM

Compound	EC50 [1]	IC50 (EN PA)
CNC(=O)c1nn(CC2(n3cc(Br)c4cccnc43)CCCC2)cc(O)c1=O [Compound 680]	< 20000 nM	< 100 nM
CNC(=O)c1nn(CC2(n3cc(C(F)(F)F)c4cccnc43)CCCC2)cc(O)c1=O [Compound 681]	< 20000 nM	< 100 nM
O=C(NC1CC1)c1nn(CC2(n3cc(C(F)(F)F)c4cccnc43)CCCC2)cc(O)c1=O [Compound 682]	< 20000 nM	< 100 nM
O=C(O)c1nn(CC2(c3cccc(Br)c3)CCCC2)cc(O)c1=O [Compound 683]	> 100000 nM	< 100 nM
CNC(=O)c1nn(CC2(c3ccc(C(F)(F)F)cc3)CCCC2)cc(O)c1=O [Compound 685]	< 20000 nM	< 100 nM
CNC(=O)c1nn(CC2(c3ccc(-c4ccccc4)cc3)CCCC2)cc(O)c1=O [Compound 686]	< 20000 nM	100 to 1000 nM
CNC(=O)c1nn(CC2(c3ccc(C(C)C)cc3)CCCC2)cc(O)c1=O [Compound 687]	< 20000 nM	< 100 nM
O=C(NCc1ccncc1)c1nn(CC2(c3ccccc3)CCCC2)cc(O)c1=O [Compound 692]	< 20000 nM	< 100 nM
O=C(NCc1cncnc1)c1nn(CC2(c3ccccc3)CCCC2)cc(O)c1=O [Compound 693]	< 20000 nM	< 100 nM
CNC(=O)c1nn(CC2(n3cc(C(C)C)c4cccnc43)CCCC2)cc(O)c1=O [Compound 694]	< 20000 nM	100 to 1000 nM
CNC(=O)c1nn(CC2(n3cc(C(F)(F)F)c4cccnc43)CCCC2)cc(OC(=O)C(C)(C)C)c1=O [Compound 695]	< 20000 nM	< 100 nM
CNC(=O)c1nn(CC2(c3cccc(Cl)c3)CCCC2)cc(O)c1=O [Compound 700]	< 20000 nM	< 100 nM
CNC(=O)c1nn(CC2(c3cccc(OC)c3)CCCC2)cc(O)c1=O [Compound 703]	< 20000 nM	< 100 nM
CNC(=O)c1nn(CC(C)(C)n2cc(C(F)(F)F)c3cccnc32)cc(O)c1=O [Compound 704]	< 20000 nM	< 100 nM
NC(=O)c1nn(CC2(c3ccccc3)CCCC2)cc(O)c1=O [Compound 708]	< 20000 nM	< 100 nM
O=C(NCc1ccc(F)c(Cl)c1)c1nn(CC2(c3ccccc3)CCCC2)cc(O)c1=O [Compound 709]	< 20000 nM	< 100 nM
CNC(=O)c1nn(CC2(n3cc(C4CC4)c4cccnc43)CCCC2)cc(O)c1=O [Compound 718]	< 20000 nM	< 100 nM
O=C(Nc1ccc(Cl)cc1)c1nn(CC2(c3ccccc3)CCCC2)cc(O)c1=O [Compound 720]	> 100000 nM	< 100 nM
NC(=O)c1nn(CC2(c3cccc(-c4ccccc4)c3)CCCC2)cc(O)c1=O [Compound 722]	> 100000 nM	< 100 nM
CC(C)c1cccc(C2(Cn3cc(O)c(=O)c(C(=O)O)n3)CCCC2)c1 [Compound 723]	20000 to 100000 nM	< 100 nM
CC(C)c1cccc(C2(Cn3cc(O)c(=O)c(C(N)=O)n3)CCCC2)c1 [Compound 730]	< 20000 nM	< 100 nM
CCc1cccc(C2(Cn3cc(O)c(=O)c(C(=O)NC)n3)CCCC2)c1 [Compound 733]	< 20000 nM	< 100 nM
